# Data taken from US20050209157A1, “Short bioactive peptides and methods for their use” (priority 2001, published 2005).
# No end group written: not given here.
# Columns and labels:
# [1] = test system: Candida albicans ATCC 10231; assay: Antimicrobial assay I, modified protocol (tryptic soy broth), MFC; details: minimum fungicidal concentration, Table 4
# Method: (§1) The preparation of all media, stock solutions, and dilutions took place in a laminar flow hood to prevent contamination. Bacterial cells were freshly grown on antibiotic medium 2 agar slants (pH 7.0 at 25° C.). Bacteria were suspended and diluted in antibiotic medium 3 to about 10^4 cfu/ml and used as the inoculum. Sample solutions (100 μl/well) were added to plates according to the plate layout. Inoculum (100 μl/well) was added to achieve a final concentration of 5×10^3 cfu/ml. Negative controls received 100 μl saline and 100 μl growth medium. Positive controls received 100 μl saline and 100 μl inoculum. Bacterial plates were incubated at 37° C. for 24 hours.
# (§2) However, the data for Table 4 were obtained with a modified protocol wherein the medium was tryptic soy broth, inocolum strength was approximately 10^4 CFU per ml, and values determined were minimum bactericidal concentrations (MBC) or minimum fungicidal concentrations (MFC).
# (§3) MBC or MFC values are in μg/mL. E. coli is Escherichia coli ATCC accession number 25922; P. aerug is Pseudomonas aeruginosa ATCC accession number 27853, S. aur. is Stapholococcus aureus ATCC accession number 25923; Candida is Candida albicans ATCC accession number 10231.
# [2] = test system: Stapholococcus aureus ATCC 25923; assay: Antimicrobial assay I, modified protocol (tryptic soy broth), MBC; details: minimum bactericidal concentration, Table 4
# Method: as §1, §2, §3
# [3] = test system: Escherichia coli ATCC 25922; assay: as above; details: minimum bactericidal concentration, Table 4
# [4] = test system: Pseudomonas aeruginosa ATCC 27853; assay: as above; details: minimum bactericidal concentration, Table 4
# Method: as §1, §2, §3
compound,measurement,setting,value
FAKIIAKIAKIAKKIL-NH2 [compound 139],MFC Candida A.10231,[1],INACT
same,MBC S. aur A.25923,[2],INACT
same,MBC E. coli A.25922,[3],INACT
same,MBC P. aerug A.27853,[4],INACT
CC(C)C[C@H](NC(=O)[C@H](C)NC(=O)[C@H](CC(C)C)NC(=O)[C@H](C)NC(=O)[C@H](CC(C)C)NC(=O)[C@H](CCCCN)NC(=O)[C@H](C)NC(=O)[C@H](CC(C)C)NC(=O)[C@H](CCCCN)NC(=O)[C@H](CCCCN)NC(=O)[C@H](C)NC(=O)[C@H](CC(C)C)NC(=O)[C@H](CCCCN)NC(=O)[C@H](CCCCN)NC(=O)[C@H](CC(C)C)NC(=O)[C@H](CCCCN)NC(=O)[C@H](CCCCN)NC(=O)[C@H](C)NC(=O)[C@H](CC(C)C)NC(=O)[C@H](CCCCN)NC(=O)[C@H](CCCCN)NC(=O)[C@H](C)NC(=O)[C@@H](N)Cc1ccccc1)C(N)=O [compound 11],MFC Candida A.10231,[1],>50 µg/mL
same,MBC S. aur A.25923,[2],25 µg/mL
same,MBC E. coli A.25922,[3],40 µg/mL
same,MBC P. aerug A.27853,[4],25 µg/mL
CC(C)C[C@H](NC(=O)[C@H](CCCCN)NC(=O)[C@H](C)NC(=O)[C@H](CC(C)C)NC(=O)[C@H](CC(C)C)NC(=O)[C@H](CCCCN)NC(=O)[C@H](C)NC(=O)[C@@H](N)Cc1ccccc1)C(=O)N[C@@H](C)C(=O)N[C@@H](CCCCN)C(=O)N[C@@H](C)C(=O)N[C@@H](CCCCN)C(=O)NCC(N)=O [compound 96],MFC Candida A.10231,[1],>50 µg/mL
same,MBC S. aur A.25923,[2],>50 µg/mL
same,MBC E. coli A.25922,[3],>50 µg/mL
same,MBC P. aerug A.27853,[4],>50 µg/mL
FAFAKIIAKIAKKII-NH2 [compound 140],MFC Candida A.10231,[1],INACT
same,MBC S. aur A.25923,[2],INACT
same,MBC E. coli A.25922,[3],INACT
same,MBC P. aerug A.27853,[4],INACT
FGKGIGKVGKKLL-NH2 [compound 132],MFC Candida A.10231,[1],INACT
same,MBC S. aur A.25923,[2],INACT
same,MBC E. coli A.25922,[3],INACT
same,MBC P. aerug A.27853,[4],INACT
CC(C)C[C@H](NC(=O)[C@H](CCCCN)NC(=O)[C@H](CCCCN)NC(=O)[C@H](Cc1c[nH]c2ccccc12)NC(=O)[C@@H](N)CCCCN)C(=O)N[C@@H](C)C(=O)N[C@@H](CCCCN)C(=O)N[C@@H](CCCCN)C(=O)N[C@@H](Cc1c[nH]c2ccccc12)C(=O)O [compound 162],MFC Candida A.10231,[1],100 µg/mL
same,MBC S. aur A.25923,[2],>250 µg/mL
same,MBC E. coli A.25922,[3],50 µg/mL
same,MBC P. aerug A.27853,[4],>250 µg/mL
CC(C)C[C@H](NC(=O)[C@H](CCCCN)NC(=O)[C@H](CCCCN)NC(=O)[C@H](Cc1c[nH]c2ccccc12)NC(=O)[C@@H](N)CCCCN)C(N)=O [compound 173],MFC Candida A.10231,[1],150 µg/mL
same,MBC S. aur A.25923,[2],>250 µg/mL
same,MBC E. coli A.25922,[3],>250 µg/mL
same,MBC P. aerug A.27853,[4],>250 µg/mL
CC(C)C[C@H](NC(=O)[C@H](CCCCN)NC(=O)[C@H](CC(C)C)NC(=O)[C@H](Cc1c[nH]c2ccccc12)NC(=O)[C@H](CCCCN)NC(=O)[C@H](CCCCN)NC(=O)[C@H](C)NC(=O)[C@H](Cc1c[nH]c2ccccc12)NC(=O)[C@H](CCCCN)NC(=O)[C@H](CCCCN)NC(=O)[C@H](Cc1c[nH]c2ccccc12)NC(=O)[C@H](CC(C)C)NC(=O)[C@@H](N)CCCCN)C(=O)N[C@@H](Cc1c[nH]c2ccccc12)C(=O)N[C@@H](CCCCN)C(=O)N[C@@H](C)C(=O)N[C@@H](Cc1c[nH]c2ccccc12)C(N)=O [compound 163],MFC Candida A.10231,[1],25 µg/mL
same,MBC S. aur A.25923,[2],25 µg/mL
same,MBC E. coli A.25922,[3],25 µg/mL
same,MBC P. aerug A.27853,[4],50 µg/mL
CC(C)C[C@H](NC(=O)[C@H](CCCCN)NC(=O)[C@H](CC(C)C)NC(=O)[C@H](CCCCN)NC(=O)[C@H](C)NC(=O)[C@H](CC(C)C)NC(=O)[C@H](CCCCN)NC(=O)[C@H](C)NC(=O)[C@H](CC(C)C)NC(=O)[C@H](CC(C)C)NC(=O)[C@H](CCCCN)NC(=O)[C@H](C)NC(=O)[C@@H](N)Cc1ccccc1)C(N)=O [compound 66],MFC Candida A.10231,[1],40 µg/mL
same,MBC S. aur A.25923,[2],30 µg/mL
same,MBC E. coli A.25922,[3],40 µg/mL
same,MBC P. aerug A.27853,[4],50 µg/mL
FALKALKK-NH2 [compound 145],MFC Candida A.10231,[1],100 µg/mL
same,MBC S. aur A.25923,[2],INACT
same,MBC E. coli A.25922,[3],INACT
same,MBC P. aerug A.27853,[4],INACT
CC(C)C[C@H](NC(=O)[C@H](CCCCN)NC(=O)[C@H](C)NC(=O)[C@H](CC(C)C)NC(=O)[C@H](CC(C)C)NC(=O)[C@H](CCCCN)NC(=O)[C@H](C)NC(=O)[C@@H](N)Cc1ccccc1)C(=O)N[C@@H](C)C(=O)N[C@@H](CCCCN)C(=O)N[C@@H](CCCCN)C(N)=O [compound 151],MFC Candida A.10231,[1],100 µg/mL
same,MBC S. aur A.25923,[2],>250 µg/mL
same,MBC E. coli A.25922,[3],>250 µg/mL
same,MBC P. aerug A.27853,[4],>250 µg/mL
CC[C@H](C)[C@H](NC(=O)[C@H](C)NC(=O)[C@H](CCCNC(=N)N)NC(=O)[C@H](CC(C)C)NC(=O)CNC(=O)[C@@H](NC(=O)[C@H](C)NC(=O)[C@@H](N)Cc1ccccc1)C(C)C)C(=O)N[C@@H](CCCCN)C(=O)N[C@@H](CCCNC(=N)N)C(=O)N[C@@H](C)C(=O)N[C@@H](CC(C)C)C(=O)N[C@@H](CCCCN)C(=O)N[C@@H](CCCCN)C(=O)N[C@@H](CC(C)C)C(=O)N[C@@H](CCCNC(=N)N)C(=O)N[C@@H](CCCNC(=N)N)C(=O)NCC(=O)N[C@H](C(=O)N[C@@H](CCCNC(=N)N)C(=O)N[C@@H](CCCCN)C(=O)N[C@H](C(=O)N[C@@H](C)C(=O)N[C@@H](CCCCN)C(=O)N[C@@H](CC(=O)O)C(=O)N[C@@H](CC(C)C)C(N)=O)C(C)C)C(C)C [compound 157],MFC Candida A.10231,[1],>250 µg/mL
same,MBC S. aur A.25923,[2],>250 µg/mL
same,MBC E. coli A.25922,[3],75 µg/mL
same,MBC P. aerug A.27853,[4],>250 µg/mL
FAKLFAKAFKKAL-NH2 [compound 117],MFC Candida A.10231,[1],INACT
same,MBC S. aur A.25923,[2],INACT
same,MBC E. coli A.25922,[3],INACT
same,MBC P. aerug A.27853,[4],INACT
CC(C)C[C@H](NC(=O)[C@H](CC(C)C)NC(=O)[C@H](CCCCN)NC(=O)[C@H](CCCCN)NC(=O)[C@H](C)NC(=O)[C@H](CC(C)C)NC(=O)[C@H](CCCCN)NC(=O)[C@H](CCCCN)NC(=O)[C@H](C)NC(=O)[C@@H](N)Cc1ccccc1)C(N)=O [compound 59],MFC Candida A.10231,[1],>50 µg/mL
same,MBC S. aur A.25923,[2],>50 µg/mL
same,MBC E. coli A.25922,[3],>50 µg/mL
same,MBC P. aerug A.27853,[4],>50 µg/mL
CC(C)C[C@H](NC(=O)[C@H](CCCCN)NC(=O)[C@H](CCCCN)NC(=O)[C@H](Cc1c[nH]c2ccccc12)NC(=O)[C@@H](N)CCCCN)C(=O)N[C@@H](C)C(=O)N[C@@H](CCCCN)C(=O)N[C@@H](CCCCN)C(=O)N[C@@H](Cc1c[nH]c2ccccc12)C(N)=O [compound 161],MFC Candida A.10231,[1],25 µg/mL
same,MBC S. aur A.25923,[2],>250 µg/mL
same,MBC E. coli A.25922,[3],150 µg/mL
same,MBC P. aerug A.27853,[4],>250 µg/mL
FAKLA-NH2 [compound 128],MFC Candida A.10231,[1],INACT
same,MBC S. aur A.25923,[2],INACT
same,MBC E. coli A.25922,[3],INACT
same,MBC P. aerug A.27853,[4],INACT
CC(C)C[C@H](NC(=O)[C@H](C)NC(=O)[C@H](CCCCN)NC(=O)[C@H](CCCCN)NC(=O)[C@H](CC(C)C)NC(=O)[C@H](C)NC(=O)[C@H](CCCCN)NC(=O)[C@H](C)NC(=O)[C@H](CC(C)C)NC(=O)[C@H](C)NC(=O)[C@@H](N)Cc1ccccc1)C(N)=O [compound 166],MFC Candida A.10231,[1],>250 µg/mL
same,MBC S. aur A.25923,[2],>250 µg/mL
same,MBC E. coli A.25922,[3],>250 µg/mL
same,MBC P. aerug A.27853,[4],>250 µg/mL
FAKLLAKLAKKIL-NH2 [compound 125],MFC Candida A.10231,[1],40 µg/mL
same,MBC S. aur A.25923,[2],INACT
same,MBC E. coli A.25922,[3],40 µg/mL
same,MBC P. aerug A.27853,[4],40 µg/mL
FAKLLAKLAKKSL-NH2 [compound 127],MFC Candida A.10231,[1],INACT
same,MBC S. aur A.25923,[2],INACT
same,MBC E. coli A.25922,[3],INACT
same,MBC P. aerug A.27853,[4],INACT
FAKLLFKALKKAL-NH2 [compound 112],MFC Candida A.10231,[1],INACT
same,MBC S. aur A.25923,[2],INACT
same,MBC E. coli A.25922,[3],30 µg/mL
same,MBC P. aerug A.27853,[4],INACT
KAKLF-NH2 [compound 130],MFC Candida A.10231,[1],INACT
same,MBC S. aur A.25923,[2],INACT
same,MBC E. coli A.25922,[3],INACT
same,MBC P. aerug A.27853,[4],INACT
CC(C)C[C@H](NC(=O)[C@H](CC(C)C)NC(=O)[C@H](CCCCN)NC(=O)[C@H](CCCCN)NC(=O)[C@H](C)NC(=O)[C@H](CC(C)C)NC(=O)[C@H](CCCCN)NC(=O)[C@H](C)NC(=O)[C@@H](N)Cc1ccccc1)C(N)=O [compound 60],MFC Candida A.10231,[1],>50 µg/mL
same,MBC S. aur A.25923,[2],>50 µg/mL
same,MBC E. coli A.25922,[3],>50 µg/mL
same,MBC P. aerug A.27853,[4],>50 µg/mL
CC(C)C[C@H](NC(=O)[C@H](C)NC(=O)[C@H](CCCCN)NC(=O)[C@H](CCCCN)NC(=O)[C@H](CC(C)C)NC(=O)[C@H](C)NC(=O)[C@H](CCCCN)NC(=O)[C@H](CC(C)C)NC(=O)[C@H](CC(C)C)NC(=O)[C@H](C)NC(=O)[C@@H](N)Cc1ccccc1)C(N)=O [compound 171],MFC Candida A.10231,[1],50 µg/mL
same,MBC S. aur A.25923,[2],>250 µg/mL
same,MBC E. coli A.25922,[3],75 µg/mL
same,MBC P. aerug A.27853,[4],100 µg/mL
FAKLLAKFLKKAL-NH2 [compound 113],MFC Candida A.10231,[1],40 µg/mL
same,MBC S. aur A.25923,[2],INACT
same,MBC E. coli A.25922,[3],INACT
same,MBC P. aerug A.27853,[4],INACT
CC(C)C[C@H](NC(=O)[C@H](C)NC(=O)[C@H](CC(C)C)NC(=O)[C@H](C)NC(=O)[C@H](CC(C)C)NC(=O)[C@H](CCCCN)NC(=O)[C@H](C)NC(=O)[C@H](CC(C)C)NC(=O)[C@H](CCCCN)NC(=O)[C@H](CCCCN)NC(=O)[C@H](CC(C)C)NC(=O)[C@H](CCCCN)NC(=O)[C@H](CCCCN)NC(=O)[C@H](C)NC(=O)[C@H](CC(C)C)NC(=O)[C@H](CCCCN)NC(=O)[C@H](CCCCN)NC(=O)[C@H](C)NC(=O)[C@@H](N)Cc1ccccc1)C(=O)O [27C],MFC Candida A.10231,[1],>40 µg/mL
same,MBC S. aur A.25923,[2],>40 µg/mL
same,MBC E. coli A.25922,[3],10 µg/mL
same,MBC P. aerug A.27853,[4],4 µg/mL
KWKLF-NH2 [compound 131],MFC Candida A.10231,[1],INACT
same,MBC S. aur A.25923,[2],INACT
same,MBC E. coli A.25922,[3],INACT
same,MBC P. aerug A.27853,[4],INACT
